Series [1] is described as follows: Liver microsome stability, mouse. In kind it is in vitro ADME. Conditions: CD-1, mouse; for half-life at 3 μM / remaining at 0.5 h, 3 µM: liver microsomes; for half-life at 3 μM: incubation up to 30 min, read-out: liver microsome stability T1/2, mouse; for remaining at 0.5 h, 3 µM: over the assay time course (30 min), read-out: % remaining, mouse LMs; for microsomal CLint at 3 μM: mouse liver microsomes. Here is the method: Human liver microsomes (HLMs, 20 mg/mL) and CD-1 mouse liver microsomes (MLMs, 20 mg/mL) were purchased from Xenotech. NADPH was purchased from Sigma-Aldrich and prepared in 10 mM stock solutions of distilled H2O (Invitrogen UltraPure). Verapamil and diphenhydramine were both purchased from Sigma-Aldrich and served as positive controls for HLM and MLM stability, respectively. Test compounds and positive controls were initially dissolved in DMSO to make 10 mM stock solutions. Sample solutions were then further diluted in 70% MeOH/H2O or 100% MeCN to 500 μM. Next, the reactions were prepared by mixing human or mouse liver microsomes (55 μL) with potassium phosphate buffer (100 mM, […]) in 1.5 mL Eppendorf tubes. The test compounds (6.6 μL of 500 μM solution) were subsequently added to the suspensions, and the reaction mixtures were incubated at 37 °C for 5 min. Afterward, the liver microsome reactions were initiated with 110 μL of 10 mM NADPH and further incubated at 37 °C for the designated time course of the study. This procedure provided experiments with a final volume of 1100 μL (<0.6% organic solvent content), a concentration for HLMs and MLMs of 1 mg/mL, and a final test compound concentration of 3 μM. Aliquots (100 μL) were removed from each reaction mixture in duplicate at 0, 5, 10, 15, and 30 min time intervals and quenched with 100 μL of cold internal standard solution (ISTD, 2 μM 7-ethoxy-d5-coumarin in MeOH or MeCN). Quenched aliquots were then centrifuged at 12 500 g for 5–10 min, and the resulting supernatants were withdrawn and placed in LC-MS vials to be analyzed by LC-MS/MS (Agilent G6460C QQQ MS coupled with an Infinity II 1260 HPLC). Each test compound was run in tandem with positive and negative control experiments for quality assurance. Positive control reactions were conducted at a final volume of 550 μL for a single run at each time point. Lastly, the negative control experiment was conducted with test compounds and liver microsomes in the absence of NADPH (150 μL) and analyzed at the 30 min time point.
For both LM and plasma assays, each data point was analyzed in triplicate using between blank washes to avoid carry over and to equilibrate the column for the subsequent runs. Averages of these triplicates for individual compounds at each time point were then normalized to the data at 0 min, representing 100% of the test compound remaining or 0% metabolism. Half-lives (t1/2) were calculated by plotting ln of % test compound remaining versus time and performing linear regression to determine slope. Slope = −k and t1/2 = 0.693/k for first-order kinetics (see Figures S5 and S6 for a representative example).

The target of the next series is CYP3A4 (Homo sapiens, UniProt P08684). Briefly: biochemical.
CYP3A4, sequence (P08684 whole entry): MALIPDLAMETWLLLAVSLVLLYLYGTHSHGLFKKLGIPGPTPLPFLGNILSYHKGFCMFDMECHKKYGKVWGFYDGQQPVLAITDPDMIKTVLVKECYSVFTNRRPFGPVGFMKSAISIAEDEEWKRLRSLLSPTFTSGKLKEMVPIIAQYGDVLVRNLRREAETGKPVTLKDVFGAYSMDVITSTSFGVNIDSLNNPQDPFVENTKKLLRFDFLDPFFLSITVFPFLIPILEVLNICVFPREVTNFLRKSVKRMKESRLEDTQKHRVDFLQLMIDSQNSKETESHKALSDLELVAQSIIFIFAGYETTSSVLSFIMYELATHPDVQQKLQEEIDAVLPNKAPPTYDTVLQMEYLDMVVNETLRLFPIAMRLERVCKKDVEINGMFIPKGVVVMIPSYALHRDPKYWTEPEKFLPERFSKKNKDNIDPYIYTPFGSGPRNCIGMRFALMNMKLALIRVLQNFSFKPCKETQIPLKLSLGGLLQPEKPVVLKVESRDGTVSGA
Series [2] has as its target T1, GluN1/GluN2A (Rattus norvegicus, UniProt P35439+Q00959).
T1 construct: expressed in transfected cells; host or cells: Xenopus laevis oocytes (cRNA injection)
Put plainly: Two-electrode voltage-clamp recordings, Xenopus laevis oocytes, GluN1/GluN2A. In kind it is cell-based. Conditions: 100 μM glutamate, 30 μM glycine; for IC50: read-out: IC50 GluN2A [95% CI]; for remaining activity at 30 µM: 30 μM test compound, mean ± SEM, read-out: I 30 μM / I control GluN2A. Here is the method:
(§1) All target compounds were evaluated for NMDAR antagonism using two-electrode voltage-clamp recordings from Xenopus laevis oocytes coexpressing recombinant GluN1 and GluN2A-D subunits (Table 1).[32],[42],[33] All analogues were assessed as either a racemic (2b, 2e–2r) or diastereomeric (2d) mixture to simplify purification and streamline in vitro analysis. […] Moreover, as illustrated by the significant loss of NMDAR activity observed with nitrile 2e, the DQP allosteric site necessitated an H-bond donor/acceptor relationship at the carboxylate position. […] The loss of NMDAR activity observed with the trifluoro analogue 2j (Table S1) reinforced the necessity for an H-bond donor/acceptor relationship to maintain allosteric binding and established that fluorine substitution alone is ineffective. […] A single methyl substitution of the amide in compound 2q improved selectivity against GluN2A and had similar potency as 2a, whereas dual methyl substitution reduced potency (2r). We expect that this is likely due to the ability of the […] of the amide to accept hydrogen bonds while the amide can readily donate a proton.
(§2) Unfertilized Xenopus laevis oocytes were obtained from Ecocyte (Austin, TX), or ovaries were purchased from Xenopus 1 (Dexter, MI) and oocytes prepared as previously described.[42],[47] Two-electrode voltage-clamp recordings were performed on oocytes expressing recombinant rat GluN1/GluN2A, GluN1/GluN2B, GluN1/GluN2C, or GluN1/GluN2D. cDNAs for rat GluN1-1a (referred to as GluN1; NCBI Reference Sequence NM_017010.2), GluN2A (NM_012573.4), GluN2B (NM_012574.1), GluN2C (NM_012575.3), and GluN2D (NM_022797.2) were provided by Dr. S. Heinemann from the Salk Institute, Dr. S. Nakanishi from Kyoto University, and Dr. P. Seeburg from the University of Heidelberg. Oocyte isolation, cRNA synthesis, and cRNA injections were performed as previously described.[32],[33],[47] Briefly, Xenopus laevis oocytes were injected with 5–10 ng of cRNA in RNase-free water with the GluN1:GluN2 ratio ranging from 1:1 to 1:5. Oocytes were incubated at 15–19 °C in Barth’s solution consisting of (in mM) 88 NaCl, 1 KCl, 2.4 NaHCO3, 10 HEPES, 0.82 MgSO4, 0.33 Ca(NO3)2, and 0.41 CaCl2 supplemented with 100 μg/mL gentamycin, 40 μg/mL streptomycin, and 50 μg/mL penicillin. Recordings were performed 2–4 days after injection with extracellular recording solution containing (in mM) 90 NaCl, 1 KCl, 10 HEPES, 0.5 BaCl2, and 0.01 EDTA at pH 7.4 adjusted with NaOH. To prevent a gradual increase in current response over the course of the experiment, some oocytes expressing GluN1/GluN2A were injected with 20–50 nL of 2–50 mM K-BAPTA. Concentration–response curves for test compounds were generated by applying a maximally effective concentration of glutamate (100 μM) and glycine (30 μM), followed by glutamate and glycine with variable concentrations of test compounds up to 30 μM. The test compounds were prepared as 20 mM stock solutions in DMSO and diluted to the final concentration in recording solution. The DMSO content was 0.05–0.5% (v/v). […] Methods for off-target analysis are given in the Supporting Information.
(§3) Confidence intervals were determined for the log(IC50). The time course of relaxation during inhibitor application or deactivation following rapid removal of NMDA or glutamate was fitted by the equation [drawing 5] 2
(Two-electrode voltage clamp holds a large cell at a set potential and records current.)

Series [3] concerns the target T2, GluN1/GluN2A (Rattus norvegicus, UniProt Q00959).
T2 construct: expressed in transfected cells; host or cells: Xenopus laevis oocytes (cRNA injection)
The series is described as above. In kind it is cell-based. Conditions: mean ± SEM; for I3 μM/Icontrol GluN2A: tested at 3 μM; for I3 μM/Icontrol GluN2A / I / I control GluN2A: 100 μM glutamate, 30 μM glycine; for I / I control GluN2A: tested at 10 μM (footnote b). Here is the method:
as §1, §2, §3

Experimental findings from PMC10485906, “Development of a Dihydroquinoline–Pyrazoline GluN2C/2D-Selective Negative Allosteric Modulator of the N-Methyl-D-aspartate Receptor” (ACS Chemical Neuroscience, 2023) are described below.

Values joined by “and” are separate entries in the source; they are usually repeats but may differ in a detail not shown here. Equal values may be shown once. Marks after values point to notes of the source that are not given here. Some results are limits rather than exact numbers.

T2 sequence (Q00959 23-1464, other chains not shown): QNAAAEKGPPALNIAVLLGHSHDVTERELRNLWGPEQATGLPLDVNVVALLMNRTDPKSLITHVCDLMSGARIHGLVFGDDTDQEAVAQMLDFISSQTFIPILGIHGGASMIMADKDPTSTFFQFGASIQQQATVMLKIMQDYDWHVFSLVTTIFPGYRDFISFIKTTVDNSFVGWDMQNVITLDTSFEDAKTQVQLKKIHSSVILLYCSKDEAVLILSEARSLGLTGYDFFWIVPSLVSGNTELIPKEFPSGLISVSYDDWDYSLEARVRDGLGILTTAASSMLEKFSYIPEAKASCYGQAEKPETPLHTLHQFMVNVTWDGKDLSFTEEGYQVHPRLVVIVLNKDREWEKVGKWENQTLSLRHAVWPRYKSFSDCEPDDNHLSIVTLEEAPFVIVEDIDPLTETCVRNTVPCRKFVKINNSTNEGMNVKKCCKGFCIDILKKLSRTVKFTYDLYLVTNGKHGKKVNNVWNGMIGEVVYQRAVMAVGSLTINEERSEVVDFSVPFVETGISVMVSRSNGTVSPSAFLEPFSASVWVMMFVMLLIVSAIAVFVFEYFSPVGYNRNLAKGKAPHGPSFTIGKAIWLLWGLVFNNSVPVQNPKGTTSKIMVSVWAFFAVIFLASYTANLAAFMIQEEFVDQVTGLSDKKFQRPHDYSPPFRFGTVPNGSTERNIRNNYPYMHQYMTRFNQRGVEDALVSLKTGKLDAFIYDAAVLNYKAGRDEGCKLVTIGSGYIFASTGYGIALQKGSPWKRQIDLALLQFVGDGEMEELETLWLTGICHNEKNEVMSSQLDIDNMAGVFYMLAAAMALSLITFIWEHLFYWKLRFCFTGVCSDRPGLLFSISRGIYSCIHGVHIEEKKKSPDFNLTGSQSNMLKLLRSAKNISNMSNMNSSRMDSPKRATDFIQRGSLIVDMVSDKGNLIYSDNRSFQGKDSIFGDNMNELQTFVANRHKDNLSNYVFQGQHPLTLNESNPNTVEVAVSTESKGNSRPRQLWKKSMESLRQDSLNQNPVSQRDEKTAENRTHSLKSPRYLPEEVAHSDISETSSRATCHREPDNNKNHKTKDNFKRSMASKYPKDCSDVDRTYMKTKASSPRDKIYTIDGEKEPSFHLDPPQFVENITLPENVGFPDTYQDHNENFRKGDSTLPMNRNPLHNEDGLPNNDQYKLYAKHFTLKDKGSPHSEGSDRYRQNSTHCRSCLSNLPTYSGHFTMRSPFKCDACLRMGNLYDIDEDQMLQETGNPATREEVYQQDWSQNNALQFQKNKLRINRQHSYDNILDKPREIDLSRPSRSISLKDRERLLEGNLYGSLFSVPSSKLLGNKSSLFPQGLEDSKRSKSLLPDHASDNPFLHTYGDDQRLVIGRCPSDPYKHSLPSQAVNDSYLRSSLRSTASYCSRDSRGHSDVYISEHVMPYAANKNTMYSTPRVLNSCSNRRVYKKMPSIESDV
T1 sequence (Q00959 23-1464, other chains not shown): as above
Experimental for CYP3A4: CYP450 inhibition assays utilized microsomes from insect cells that express recombinant human CYP2D6 and CYP3A4 isoforms (Corning) with substrates of CYP2D6 (3-[2-(N,N-diethyl-N-methylammonium)-ethyl]-7-methoxy-4-methylcoumarin iodide, AMMC) and CYP3A4 (7-benzyloxy-4-trifluoromethylcoumarin, BFC) capable of producing fluorescent metabolites.[51],[52] […] A 100 mM sodium phosphate buffer was prepared and adjusted to a pH 7.4. In a separate falcon tube, a 2× enzyme–substrate (E–S) solution was prepared in phosphate buffer. The final concentrations of CYP2D6 and AMMC were 10 nM and 4 μM, respectively. The final concentrations of CYP3A4 and BFC were 20 nM and 40 μM, respectively. In a separate falcon tube, 2X solutions of the NADPH regenerating system (NRS) were prepared in phosphate buffer. The final concentrations for each NRS component in the corresponding assays were as follows: (1) CYP2D6 assay = 0.008 mM NADPH, 3.3 mM glucose-6-phosphate, and 0.4 U of glucose-6-phosphate dehydrogenase/mL and (2) CYP3A4 assay = 2.45 mM NADPH, 24.7 mM glucose-6-phosphate, and 1.25 U of glucose-6-phosphate dehydrogenase/mL.
Both enzymatic assays were conducted in a 96-well microtiter plate (Black, Corning Costar) with a final volume of 100 μL per well. Preparation of each plate began with the addition of 74 μL of the 2× E–S solution in the first well and 50 μL to all remaining wells (2–11) in the same row. […] 3-Fold serial dilutions of the test compounds were subsequently conducted by removing 25 μL from the first well and adding it to the second, followed by removing 25 μL from the second well and adding it to the third, and so forth until the 10th row. This procedure provided final concentrations for the test compound ranging from 100 to 0.01 μM across the same row (50 μL total for each well). Well 11 contained no test compound (0% inhibition and 100% activity). Well 12 contained 50 μL of substrate and test compound (100 μM) absent from the enzyme (0% activity, 100% inhibition). Wells 11 and 12 were used as controls for background fluorescence as described below. Each plate was then incubated for 30 min at 37 °C. After incubation was complete, reactions were initiated by the addition of 50 μL of 2X NRS to wells 1–12 (final well volume of 100 μL). Fluorescence measurements were immediately (<1 min) taken using a microplate reader (BioTek Synergy Neo 2). CYP2D6 was monitored at Ex/Em = 410/460 nm, and CYP3A4 was monitored at Ex/Em = 410/538 nm. Next, measurements were conducted in kinetic mode with scans every 5 min for 60 min. Two time points (30 and 60 min) were then chosen in the linear phase of the kinetic graph (reaction progression curve), and the corresponding relative fluorescence units (RFUs) at these time points were used to determine the rate of change in fluorescence according to the following equations [drawing 6] 3 [drawing 7] 4 [drawing 8] 5 where eq 3 defines the difference in RFUs between the 60 and 30 min time points, eq 4 normalizes the background-adjusted ΔRFU to no inhibitor control, and eq 5 converts % inhibition to % activity.
The resulting data were then exported and analyzed using Graph Pad Prism v7. The concentration of each test compound required to inhibit 50% substrate metabolism (IC50) was subsequently calculated from the resulting 10-point concentration–response curves (normalized fluorescence versus log[inhibitor]) using four-parameter logistic nonlinear regression (see Figure S4B for a representative example).

A word on the amount remaining: it is the share of the starting amount still present when the sample was taken. By microsomal CLint is commonly meant the capacity of the preparation to metabolise the compound, expressed as a volume cleared per time. A higher microsomal CLint goes with faster metabolism. As a reminder, the IC50 is the concentration at which inhibition is half-maximal. On to `O=C(O)CCC(=O)N1N=C(c2c(-c3ccc(Cl)cc3)c3ccccc3[nH]c2=O)CC1c1ccc(Cl)cc1` (stereo not drawn) [2a], for which, in series [1], the half-life at 3 μM is more than 30 min; the amount remaining at 0.5 h, 3 µM is more than 95%; the microsomal CLint at 3 μM was less than 23 µL/min/mg. The IC50 on CYP3A4 is 17 ± 3.4 µM.

`O=C(O)CC(F)(F)C(=O)N1N=C(c2c(-c3ccc(Cl)cc3)c3ccccc3[nH]c2=O)CC1c1ccc(Cl)cc1` (stereo not drawn) [2i]: the IC50 at GluN1/GluN2A [2] is 5.6 µM; at CYP3A4 it was more than 20 µM. The “I3 μM/Icontrol GluN2A” value at GluN1/GluN2A [3] was 61 ± 2.4% and 61 ± 2.4 ^b (2,10) %; at GluN1/GluN2A [3] (listed as racemic 2i), 61 ± 2.4 (2, 10) %. Besides, in series [1], the half-life at 3 μM is more than 30 min. Further, the fraction remaining at 0.5 h, 3 µM in series [1] was more than 95%. In series [1], this compound displayed a microsomal CLint at 3 μM of less than 23 µL/min/mg.

In the case of `NC(=O)CC(F)(F)C(=O)N1N=C(c2c(-c3ccc(Cl)cc3)c3ccccc3[nH]c2=O)CC1c1ccc(Cl)cc1` (stereo not drawn) [2k], the IC50 on GluN1/GluN2A [2] was 5.8 µM. For the same compound, the “I3 μM/Icontrol GluN2A” value at GluN1/GluN2A [3] is listed as 35 ± 6.5 ^b (3,9) %. Besides, in series [1], the half-life at 3 μM is more than 30 min; the share remaining at 0.5 h, 3 µM was more than 90%; the microsomal CLint at 3 μM was less than 23 µL/min/mg. The same compound had an IC50 against CYP3A4 of 2 ± 0.4 µM.

In the case of `CCOC(=O)CC(F)(F)C(=O)N1N=C(c2c(-c3ccc(Cl)cc3)c3ccccc3[nH]c2=O)CC1c1ccc(Cl)cc1` (stereo not drawn) [2l], the remaining activity at 30 µM on GluN1/GluN2A [2] is 100 ± 3.2%. In addition, in series [1], the half-life at 3 μM was determined as 2.6 min and the microsomal CLint at 3 μM is 267 µL/min/mg. Also, the IC50 at CYP3A4 worked out at 7.8 ± 0.1 µM.

Take `CC(C)OC(=O)CC(F)(F)C(=O)N1N=C(c2c(-c3ccc(Cl)cc3)c3ccccc3[nH]c2=O)CC1c1ccc(Cl)cc1` (stereo not drawn) [2m]: at GluN1/GluN2A [2], the remaining activity at 30 µM worked out at 97 ± 2.3%. Moreover, in series [1], the half-life at 3 μM turned out to be 2.9 min and the microsomal CLint at 3 μM was 239 µL/min/mg. For the same compound, the concentration for half-maximal inhibition (IC50) on CYP3A4 is 6.3 ± 1.1 µM.

`O=C(CC(F)(F)C(=O)N1N=C(c2c(-c3ccc(Cl)cc3)c3ccccc3[nH]c2=O)CC1c1ccc(Cl)cc1)OCC1CC1` (stereo not drawn) [2n]: on GluN1/GluN2A [2], the remaining activity at 30 µM stood at 100 ± 1.3%. Further, in series [1], the half-life at 3 μM is 1.8 min and the microsomal CLint at 3 μM is 385 µL/min/mg. The same compound yielded an IC50 against CYP3A4 of 6.7 ± 1.2 µM.

Take `CC(C)(C)COC(=O)CC(F)(F)C(=O)N1N=C(c2c(-c3ccc(Cl)cc3)c3ccccc3[nH]c2=O)CC1c1ccc(Cl)cc1` (stereo not drawn) [2o]: the “I / I control GluN2A” value at GluN1/GluN2A [3] came to 97 ± 2.2%. Moreover, in series [1], the half-life at 3 μM is 4 min and the microsomal CLint at 3 μM came to 173 µL/min/mg. Besides, 12 ± 0.04 µM corresponded to half-maximal inhibition against CYP3A4 (IC50).

Turning to `O=C(CC(F)(F)C(=O)N1N=C(c2c(-c3ccc(Cl)cc3)c3ccccc3[nH]c2=O)CC1c1ccc(Cl)cc1)OCc1ccccc1` (stereo not drawn) [2p], the remaining activity at 30 µM at GluN1/GluN2A [2] was 105 ± 0.72%. In addition, in series [1], the half-life at 3 μM is 7.2 min and the microsomal CLint at 3 μM was determined as 96 µL/min/mg. The same compound gave an IC50 against CYP3A4 of more than 20 µM.

On to `CNC(=O)CC(F)(F)C(=O)N1N=C(c2c(-c3ccc(Cl)cc3)c3ccccc3[nH]c2=O)CC1c1ccc(Cl)cc1` (stereo not drawn) [2q], for which the IC50 on GluN1/GluN2A [2] amounted to 37 µM. Also, the “I / I control GluN2A” value at GluN1/GluN2A [3] is 83 ± 3.9 ^b (2,12) %. Further, in series [1], the half-life at 3 μM is not above 7 min and the microsomal CLint at 3 μM is 178 µL/min/mg. Moreover, inhibition against CYP3A4 was half-maximal at 7.7 ± 1.7 µM (IC50).

Consider `CN(C)C(=O)CC(F)(F)C(=O)N1N=C(c2c(-c3ccc(Cl)cc3)c3ccccc3[nH]c2=O)CC1c1ccc(Cl)cc1` (stereo not drawn) [2r], for which the “I / I control GluN2A” value on GluN1/GluN2A [3] is reported as 70 ± 3.9 ^b (3,13) %. In addition, the microsomal CLint at 3 μM in series [1] turned out to be 231 µL/min/mg. Besides, the IC50 on CYP3A4 is more than 20 µM.

Take `O=C(O)CC(F)(F)C(=O)N1N=C(c2c(-c3ccc(Cl)cc3)c3ccccc3[nH]c2=O)C[C@H]1c1ccc(Cl)cc1` [(S)-(−)-2i]: at GluN1/GluN2A [2], the IC50 is 4.7 µM. Also, the “% control GluN1/GluN2A” value on GluN1/GluN2A [3] (1 µM compound, 100 µM glutamate, 30 µM glycine) is reported as 74 ± 2.1%. In addition, at GluN1/GluN2A [3], the “I3 μM/Icontrol GluN2A” value is listed as 67 ± 2.0 (3, 14) %.
